Measurements reported in PMC6328008 (Journal of Enzyme Inhibition and Medicinal Chemistry, 2019).
“Also recorded” adds a separate entry of the source.

Columns and labels:
[1] = test system: Panc1 pancreatic cancer cells; assay: Cancer cell line growth inhibition assay; format: cell-based, human; conditions: for Inhibition of growth of Panc1 cells (in words): 3 days, concentrations up to 10 µM
[2] = test system: normal mobilised peripheral blood progenitor cells; conditions: listed as NSAH; cited from earlier work

SMILES | Inhibition of growth of Panc1 cells (in words) [1] | also measured
O=C1Nc2ccccc2/C1=N\NC(=O)c1ccccc1O [TP1, (E)-2-Hydroxy-N'-(2-oxoindolin-3-ylidene)benzohydrazide] | did not inhibit the growth | 
O=C(N/N=C/c1cc(-c2ccccc2)ccc1O)c1ccccc1O [TP2, (E)-2-Hydroxy-N'-((4-hydroxy-[1,1'-biphenyl]-3-yl)methylene)-benzohydrazide] |  | Fold decrease in potency in cells on removal of the methoxy (TP2, 3 vs TP5, 6) ([1]; Panc1): > 2 fold
O=C(N/N=C/c1cc(-c2ccsc2)ccc1O)c1ccccc1O [TP3, (E)-2-Hydroxy-N'-(2-hydroxy-5-(thiophen-3-yl)-benzylidene)-benzohydrazide] |  | Fold decrease in potency in cells on removal of the methoxy (TP2, 3 vs TP5, 6) ([1]; Panc1): > 2 fold
COc1ccc(-c2ccsc2)c(/C=N/NC(=O)c2ccccc2O)c1O [TP6, (E)-2-Hydroxy-N'-(2-hydroxy-3-methoxy-6-(thiophen-3-yl)benzylidene)-benzohydrazide] |  | Fold decrease in IC50 over lead compound NSAH (TP8) ([1]; Panc1): > 2 fold
Nc1ncnc2c1ncn2-c1ccc(/C=N/NC(=O)c2ccccc2O)cc1 [TP7, (E)-N'-(4–(6-amino-9H-purin-9-yl)benzylidene)-2-hydroxybenzohydrazide] | did not inhibit the growth | 
O=C(N/N=C/c1c(O)ccc2ccccc12)c1ccccc1O [TP8, (E)-2-Hydroxy-N'-((2-hydroxynaphthalen-1-yl)methylene)-benzohydrazide] |  | Toxicity against normal mobilised peripheral blood progenitor cells [2]: much less effective
COc1ccc(-c2cnc(-c3ccccc3O)s2)cc1 [TP9, 2–(5-(4-Methoxyphenyl)thiazol-2-yl)-phenol] | did not inhibit the growth; also recorded: ineffective | 
O=C(NNC(=O)c1c(O)ccc2ccccc12)c1cccnc1 [TP11, N'-(2-Hydroxy-1-naphthoyl)-nicotinohydrazide] | did not inhibit the growth | 
O=C(N/N=C/c1cccnc1)c1c(O)ccc2ccccc12 [TP12, (E)-2-Hydroxy-N'-(pyridin-3-ylmethylene)-1-naphthohydrazide] | did not inhibit the growth | 
O=C(NNC(=O)c1ccccc1O)c1cccnc1 [TP13, N'-(2-Hydroxybenzoyl)-nicotinohydrazide] | did not inhibit the growth | 
